From US20070116785A1, “Nitric oxide as an anti-viral agent, vaccine and vaccine adjuvant” (priority 2005, published 2007)
Entries after “also recorded” stand apart in the source; their conditions may differ.

Key:
[1] = tested on: Highly Pathogenic Avian Influenza (HPAI) H7N3; assay type: cell-based
[2] = tested on: influenza A/Victoria/H3N2; experiment: Plaque assay in MDCK cells with gNO-exposed virus, several concentrations and dosing techniques (Example 2); assay type: cell-based
influenza A/H3N2 = experiment: Plaque assay in MDCK cells with gNO-exposed virus (Example 2); assay type: cell-based
influenza A virus = experiment: Plaque assay in MDCK cells with virus exposed to nitric oxide gas (Example 1); assay type: cell-based; conditions: virus exposed to 160 ppm nitric oxide gas for 1, 2 and 3 hours; vs air control; FIG. 1
Bovine Respiratory Virus = experiment: In vivo bovine feedlot study (Example 6); parameters: species or system calves
Method: A similar in vivo bovine study as in Example 5 was conducted with one hundred and fifty-eight (158) calves. The calves were shipped into a commercial feedlot, wherein some of the animals at the feedlot were infected with BRV. The […] calves were treated with either: (1) 4 minutes of approximately 160-260 ppm nitric oxide gas (30-60 breaths); or (2) conventional antibiotic, antiviral and immunization medications. 42 calves were treated with gNO, while 116 calves were treated with conventional antibiotics.

[3] = tested on: Bovine Respiratory Disease (BRD)

[N]=O [gNO, Nitric oxide]
concentration of HPAI H7N3 [1]: about 330 PFU/mL
infectivity of HPAI H7N3, continuous exposure compared with single treatment [1]: comparatively better than the single treatment
infectivity of HPAI H7N3 ([1]; after 3 hours): under 50 PFU/mL
infectivity of influenza A/Victoria/H3N2 ([2]; 40 ppm gNO continuously over 4 hours, FIG. 10): no effect
infectivity of influenza A/Victoria/H3N2 ([2]; 80 ppm gNO continuously for 4 hours, FIG. 7, 10): not effective; also recorded: no effect
infectivity of influenza A/Victoria/H3N2 ([2]; 160 ppm gNO and above (160 ppm and 800 ppm), continuously over 4 hours, vs controls and lower concentrations, FIG. 11): effective in reducing the infectivity
concentration of influenza A/Victoria/H3N2 ([2]; 160 ppm gNO for 4 continuous hours, FIG. 8): effective in reducing the concentration of influenza A/Victoria/H3N2; also recorded: significant effect
infectivity of influenza A/Victoria/H3N2 ([2]; 800 ppm gNO continuously over 4 hours, FIG. 11): no real improved effect compared to 160 ppm
infectivity of influenza A/Victoria/H3N2 ([2]; intermittent 160 ppm gNO, 30 minutes once every hour for 4 hours, FIG. 12): more effective than the single 30 minute exposure; also recorded: effective as an anti-infective agent against influenza A/Victoria/H3N2
concentration of influenza A/Victoria/H3N2 ([2]; single 30 minute exposure to 160 ppm gNO, tracked over 4 hours, FIG. 9, 12): effective in reducing concentration of influenza A/Victoria/H3N2; also recorded: as effective as three (3) thirty (30) minute doses of gNO
infectivity of influenza A/H3N2 (influenza A/H3N2; 80 ppm gNO continuously for 4 hours, FIG. 4): not as effective as the 160 ppm concentration
concentration of influenza A/H3N2 (viruses capable of infecting a cell) (influenza A/H3N2; 160 ppm gNO for 1, 2 and 3 hours, vs room air control, FIG. 2): significantly reduced the concentration of influenza A/H3N2
concentration of influenza A/H3N2 (influenza A/H3N2; single 30 minute exposure to 160 ppm gNO, plaque assay to 20 hours after exposure, FIG. 5): decreases concentration of influenza A/H3N2 over 20 hours
influenza A virus in MDCK cell cultures (plaques) (influenza A virus): significantly less influenza A virus as compared to the air control
calves exhibiting clinical signs of infection (Bovine Respiratory Virus) (Bovine Respiratory Virus; after 15 days, 4 minutes of approximately 160-260 ppm nitric oxide gas (30-60 breaths), 4/42): 9.5%
effectiveness as antiviral agent reducing infectivity relative to conventional vaccines, antiviral agents and antibiotics (Bovine Respiratory Virus; feedlot calves, 15 days): almost twice as effective
clinical scores (industry standard signs) ([3]; 160 ppm gNO, prophylactic vs early detection group, FIG. 17): more effective in achieving low clinical scores for the prophylactic group than for the early detection group
IRT Temperature ([3]; 160 ppm gNO, prophylactic vs early detection group, FIG. 18): more effective in achieving low IRT temperatures for the prophylactic group than for the early detection group
calves' temperatures and clinical scores ([3]; NO given at Early Detection (IRT) or at Clinical Detection): rapidly resolved
infection after 6 months ([3]; all NO treated animals regardless of dosing/timing, induction herd: 13 out of 15 required antibiotic treatment): none of the NO treated animals demonstrated infection
prevention of infection ([3]; bovine, in vivo): effective in preventing infection
safety of delivery ([3]; bovine, in vivo): delivered safely without incident
Mean Temperature (IRT) ([3]; prophylactic group, mean over 10 days, […], FIG. 16): roughly 36.1 °C
